Assay [1] concerns the target Cyclin-dependent kinase 7 (Homo sapiens, UniProt P50613). Description: Inhibition of CDK7.
In another assay the test system is NCI-H1299. Description: Inhibition of DNA damage-induced cell cycle arrest in human H1299 cells assessed as progression into mitosis measuring mitosis specific-phosphorylation of nucleolin after 8 hrs by checkpoint escape assay. The assay is classed as functional, cell-based. The note with it: NCI-H1299, 8 h.
Assay [2] deals with T1, Serine/threonine-protein kinase Chk1 (Homo sapiens, UniProt O14757).
T1 sequence (O14757 whole entry): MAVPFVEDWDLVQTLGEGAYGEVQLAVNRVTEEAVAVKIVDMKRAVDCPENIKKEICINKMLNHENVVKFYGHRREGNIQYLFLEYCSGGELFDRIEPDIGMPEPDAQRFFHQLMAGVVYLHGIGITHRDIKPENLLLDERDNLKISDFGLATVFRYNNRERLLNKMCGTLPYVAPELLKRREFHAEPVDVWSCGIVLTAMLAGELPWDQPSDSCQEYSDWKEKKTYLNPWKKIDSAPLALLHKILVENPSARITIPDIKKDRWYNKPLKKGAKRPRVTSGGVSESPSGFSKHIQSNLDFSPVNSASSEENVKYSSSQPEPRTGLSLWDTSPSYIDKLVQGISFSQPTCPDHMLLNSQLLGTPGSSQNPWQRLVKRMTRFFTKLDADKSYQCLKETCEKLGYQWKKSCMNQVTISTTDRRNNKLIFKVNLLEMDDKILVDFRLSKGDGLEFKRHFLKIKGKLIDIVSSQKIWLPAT
Description: Inhibition of CHK1 by time resolved fluorescence assay.

pEC50, pIC50: −log10 of the molar value. Bounds are passed on as bounds.

Experimental findings from ChEMBL document CHEMBL2010672, “Pyridyl aminothiazoles as potent Chk1 inhibitors: optimization of cellular activity” (Bioorg Med Chem Lett, 2012) are described below.

By pIC50 is commonly meant the negative decadic logarithm of the IC50, by convention in mol/L. Read a low pIC50 as a high IC50. A word on the pEC50: it is −log10 of the EC50, conventionally taken in molar units.

Chain of Cyclin-dependent kinase 7 (P50613 whole entry): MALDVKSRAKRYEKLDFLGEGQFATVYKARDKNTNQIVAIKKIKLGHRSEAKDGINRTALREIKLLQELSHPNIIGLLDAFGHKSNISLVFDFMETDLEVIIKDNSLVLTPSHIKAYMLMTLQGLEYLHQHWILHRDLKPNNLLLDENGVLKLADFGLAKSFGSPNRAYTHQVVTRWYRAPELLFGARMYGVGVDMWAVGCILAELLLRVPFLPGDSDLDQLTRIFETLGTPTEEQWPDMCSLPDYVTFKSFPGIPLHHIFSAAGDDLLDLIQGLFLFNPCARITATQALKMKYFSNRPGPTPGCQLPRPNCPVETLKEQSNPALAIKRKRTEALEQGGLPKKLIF

As for `NCCNC(=O)c1cncc(-c2cnc(Nc3cc(N4CCOCC4)ccn3)s2)c1`, in assay [1], the pIC50 was 6.47. For the same compound, the pEC50 in the assay on NCI-H1299 is 6.34.

Take `O=C(CN1CCN(c2ccnc(Nc3ncc(-c4cccnc4)s3)c2)CC1)N1CCOCC1`: in assay [1], the pIC50 was 5.75. Besides, in the assay on NCI-H1299, the pEC50 was < 4.30.

For `Cc1ccc(-c2cnc(Nc3cc(N4CCNCC4)ccn3)s2)cn1`, the pIC50 in assay [1] was < 4.70. The pEC50 with NCI-H1299 was 5.86.

Regarding `c1cncc(-c2cncc(-c3cnc(Nc4cc(N5CCOCC5)ccn4)s3)c2)c1`, the pIC50 in assay [1] was < 5.00. In the assay on NCI-H1299, the pEC50 was < 5.00.

Regarding `c1ncc(-c2cncc(-c3cnc(Nc4cc(N5CCOCC5)ccn4)s3)c2)cn1`, the pIC50 in assay [1] is < 5.00. The pEC50 in the assay with NCI-H1299 is < 5.00.

Take `c1cc(N2CCNCC2)cc(Nc2ncc(-c3cncc(-c4cn[nH]c4)c3)s2)n1`: the pIC50 in assay [1] is 6.59. Moreover, the pEC50 in the assay with NCI-H1299 was 5.26.

Consider `CS(=O)(=O)N1CCN(c2ccnc(Nc3ncc(-c4cncc(C(=O)NCCN)c4)s3)c2)CC1`, for which the pIC50 in assay [1] is 6.77. Further, the pEC50 in the assay with NCI-H1299 is 6.30.

As for `CC(=O)N1CCN(c2ccnc(Nc3ncc(-c4cncc(C(=O)NCCN)c4)s3)c2)CC1`, the pIC50 in assay [1] was 6.68. In addition, the pEC50 in the assay with NCI-H1299 is 5.92.

Turning to `Cc1ccc(-c2cnc(Nc3cccc(NCCCN)n3)s2)cn1`, the pIC50 in assay [2] is 7.57; in assay [1], 6.06. For the same compound, in the assay with NCI-H1299, the pEC50 was < 4.78.

Turning to `c1ccc(-c2cnc(Nc3cccc(N4CCNCC4)n3)s2)cc1`, the pIC50 in assay [2] was 7.48; in assay [1], 7.59. Further, the pEC50 in the assay with NCI-H1299 was < 4.78.

For the compound `Cc1ccc(-c2cnc(Nc3cccc(N4CCNCC4)n3)s2)cn1`, the negative logarithm of the IC50 (pIC50) in assay [2] was 7.42; in assay [1] it was 6.00. Moreover, the pEC50 with NCI-H1299 was < 4.78.

On to `c1ncc(-c2cnc(Nc3cc(N4CCNCC4)ccn3)s2)cn1`, for which the pIC50 in assay [2] is 7.54; in assay [1] it was 4.96. For the same compound, in the assay with NCI-H1299, the pEC50 was 5.82.

As to `c1cc(Nc2ncc(-c3cncnc3)s2)nc(N2CCNCC2)c1`, the values for the pIC50 in assay [2] and in assay [1] were 6.80 and 6.39, respectively.

On to `Brc1cncc(-c2cnc(Nc3cc(N4CCNCC4)ccn3)s2)c1`, for which the pIC50 is 7.68 in assay [2] and 6.32 in assay [1]. Also, in the assay with NCI-H1299, the pEC50 was < 4.30.

As for `c1cn(-c2cncc(-c3cnc(Nc4cc(N5CCOCC5)ccn4)s3)c2)nn1`, the figures for the pIC50 in assay [2] and in assay [1] were 8.05 and < 5.00, respectively. Besides, in the assay on NCI-H1299, the pEC50 was 5.86.

For `Cn1cc(-c2cncc(-c3cnc(Nc4cc(N5CCNCC5)ccn4)s3)c2)cn1`, the figures for the pIC50 in assay [2] and in assay [1] were 8.22 and < 5.70, respectively. For the same compound, the pEC50 in the assay with NCI-H1299 was 5.88.

For `c1cncc(-c2cncc(-c3cnc(Nc4cc(N5CCNCC5)ccn4)s3)c2)c1`, the pIC50 in assay [2] was 8.30; in assay [1] it was < 5.00. For the same compound, the pEC50 with NCI-H1299 is 6.24.

For `O=C(O)c1cncc(-c2cnc(Nc3cc(N4CCNCC4)ccn3)s2)c1`, the pIC50 in assay [2] was 7.80; in assay [1] it was < 5.00. Further, in the assay with NCI-H1299, the pEC50 is < 5.00.

Turning to `NC(=O)c1cncc(-c2cnc(Nc3cc(N4CCOCC4)ccn3)s2)c1`, the pIC50 in assay [2] is 8.00; in assay [1], < 5.43. In the assay with NCI-H1299, the pEC50 was < 5.00.

In the case of `Cc1ccc(NC(=O)c2cncc(-c3cnc(Nc4cc(N5CCOCC5)ccn4)s3)c2)s1`, the pIC50 in assay [2] is 7.92; in assay [1], < 5.00. The pEC50 with NCI-H1299 was 6.04.

With `CNC(=O)c1cncc(-c2cnc(Nc3cc(N4CCOCC4)ccn3)s2)c1`, the pIC50 in assay [2] was 8.15; in assay [1], < 5.00. For the same compound, the pEC50 with NCI-H1299 was 6.52.

As to `NCCNC(=O)c1cncc(-c2cnc(Nc3cc(Cl)ccn3)s2)c1`, the results for the pIC50 in assay [2] and in assay [1] were 7.80 and 6.03, respectively. Moreover, the pEC50 in the assay on NCI-H1299 is 6.03.

Regarding `NCCNC(=O)c1cncc(-c2cnc(Nc3ncccc3Cl)s2)c1`, the pIC50 in assay [2] is 9.52; in assay [1], 6.02. Further, the pEC50 in the assay with NCI-H1299 was 6.48.

With `Cc1cccnc1Nc1ncc(-c2cncc(C(=O)NCCN)c2)s1`, the results for the pIC50 in assay [2] and in assay [1] were 9.40 and 6.04, respectively. The pEC50 with NCI-H1299 was 6.37.

As to `NCCNC(=O)c1cccc(-c2cnc(Nc3cc(N4CCC(F)(F)CC4)ccn3)s2)c1`, the pIC50 is 8.10 in assay [2] and 6.80 in assay [1]. In addition, in the assay with NCI-H1299, the pEC50 was < 5.00.

Regarding `NCCCCc1cncc(-c2cnc(Nc3cc(N4CCOCC4)ccn3)s2)c1`, the pIC50 in assay [2] was 7.92; in assay [1], < 5.00.

As for `NCCNC(=O)c1cncc(-c2cnc(Nc3ccccc3Cl)s2)c1`, the pIC50 in assay [2] was 7.48; in assay [1], < 5.00. Besides, the pEC50 with NCI-H1299 is < 5.00.

For the compound `O=C(NCCO)c1cncc(-c2cnc(Nc3cc(N4CCOCC4)ccn3)s2)c1`, the figures for the pIC50 in assay [2] and in assay [1] were 7.82 and < 5.00, respectively. Also, the negative-log EC50 (pEC50) in the assay with NCI-H1299 was < 5.00.

For `O=C(NCC(F)(F)F)c1cncc(-c2cnc(Nc3cc(N4CCOCC4)ccn3)s2)c1`, the pIC50 in assay [2] is 8.80; in assay [1], 6.15. Moreover, the pEC50 in the assay on NCI-H1299 was 6.70.

`CS(=O)(=O)N1CCN(c2ccnc(Nc3ncc(-c4cncc(C(=O)NCC(F)(F)F)c4)s3)c2)CC1`: the pIC50 was 8.77 in assay [2] and 5.68 in assay [1]. The pEC50 with NCI-H1299 is 6.97.

For `NCCNC(=O)c1cncc(-c2cnc(Nc3cc(N4CCC(F)CC4)ccn3)s2)c1`, the negative-log IC50 (pIC50) in assay [2] was 10.15; in assay [1], 6.46. For the same compound, in the assay on NCI-H1299, the pEC50 was 6.32.
